molecular target: T1, CPS1 (Homo sapiens, UniProt P31327); assay: ADP-Glo endpoint assay measuring the ATPase activity of CPS1; type: biochemical; conditions: geometric mean of a minimum of two values; 50 nM CPS1, 10 μM ATP, 0.2 mM NAG, 60 min at room temperature; read-out: ADPGlo IC50
T1 construct: The full length, human CPS1 gene was cloned into pFastBac HTA; His6 (from the pFastBac HTA vector); made in house; host or cells: SF21 insect cells (baculovirus, Bac-to-bac)
T1 sequence (P31327 39-1500): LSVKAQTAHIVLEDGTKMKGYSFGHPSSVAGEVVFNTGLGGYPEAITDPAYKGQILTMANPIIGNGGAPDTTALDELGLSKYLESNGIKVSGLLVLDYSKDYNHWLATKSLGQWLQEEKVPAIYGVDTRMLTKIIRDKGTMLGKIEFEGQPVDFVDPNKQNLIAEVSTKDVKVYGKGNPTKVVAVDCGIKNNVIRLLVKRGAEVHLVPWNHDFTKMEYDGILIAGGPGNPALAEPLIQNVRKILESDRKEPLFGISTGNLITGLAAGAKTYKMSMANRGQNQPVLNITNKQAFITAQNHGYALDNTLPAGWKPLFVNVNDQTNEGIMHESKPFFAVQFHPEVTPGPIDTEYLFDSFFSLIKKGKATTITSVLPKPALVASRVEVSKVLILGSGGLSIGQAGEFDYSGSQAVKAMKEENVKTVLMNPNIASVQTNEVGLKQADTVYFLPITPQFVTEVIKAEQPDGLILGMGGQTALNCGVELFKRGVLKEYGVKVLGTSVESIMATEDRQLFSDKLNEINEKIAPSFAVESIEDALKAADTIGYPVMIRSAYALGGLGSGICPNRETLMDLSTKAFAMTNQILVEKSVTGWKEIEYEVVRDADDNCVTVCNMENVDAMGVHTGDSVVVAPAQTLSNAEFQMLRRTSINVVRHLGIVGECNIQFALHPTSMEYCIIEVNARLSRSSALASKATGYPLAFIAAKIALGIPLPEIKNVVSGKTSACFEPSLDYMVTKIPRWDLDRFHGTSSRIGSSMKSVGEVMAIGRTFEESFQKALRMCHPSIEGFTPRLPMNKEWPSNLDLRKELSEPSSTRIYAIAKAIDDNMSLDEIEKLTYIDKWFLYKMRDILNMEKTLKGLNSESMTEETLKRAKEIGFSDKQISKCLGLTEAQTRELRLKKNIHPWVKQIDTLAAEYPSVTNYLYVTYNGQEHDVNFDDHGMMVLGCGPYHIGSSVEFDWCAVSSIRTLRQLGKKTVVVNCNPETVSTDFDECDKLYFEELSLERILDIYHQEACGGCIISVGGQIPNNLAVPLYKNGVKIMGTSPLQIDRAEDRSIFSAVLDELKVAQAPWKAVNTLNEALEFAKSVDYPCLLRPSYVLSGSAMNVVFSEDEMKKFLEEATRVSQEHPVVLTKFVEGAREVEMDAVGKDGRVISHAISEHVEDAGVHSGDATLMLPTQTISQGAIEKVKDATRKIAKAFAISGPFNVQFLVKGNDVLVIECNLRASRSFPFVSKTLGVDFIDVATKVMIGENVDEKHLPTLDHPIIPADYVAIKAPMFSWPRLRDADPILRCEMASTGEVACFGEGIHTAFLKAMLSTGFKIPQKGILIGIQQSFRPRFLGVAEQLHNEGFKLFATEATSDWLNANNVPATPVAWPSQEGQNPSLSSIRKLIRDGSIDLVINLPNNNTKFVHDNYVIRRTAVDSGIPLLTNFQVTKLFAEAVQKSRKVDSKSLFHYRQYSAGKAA
Method: CPS1 was expressed and purified from SF21 insect cells. The full length, human CPS1 gene was cloned into pFastBac HTA and baculovirus was generated using the Bac-to-bac expression system from Invitrogen. P3 virus was used to infect SF21 insect cells at a density of 1.5E6 cells/mL at an MOI of 2. Cells were harvested by centrifugation after 60 hrs and the cell pellet resuspended in lysis buffer (50 mM glycyl glycine pH 7.4, 20 mM KCl, 1 mM TCEP, 10% glycerol and 20 mM imidazole with Roche protease inhibitor tablet) before being lysed with 40 strokes of a Dounce homogenizer on ice. The insoluble fraction of the lysate was then cleared by centrifugation at 30,000 rpm for 30 min. 40 mL of supernatant was mixed with 2 mL of Ni NTA beads for 45 min at 4° C. in a 50 mL conical tube.
The beads were washed with 40 mL of wash buffer (50 mM glycyl glycine pH 7.4, 500 mM NaCl, 1 mM TCEP, 10% glycerol and 50 mM imidazole) by centrifugation and resuspension of the beads three times. Bound CPS1 protein was eluted in 6 mL of elution buffer (50 mM glycyl glycine pH 7.4, 500 mM NaCl, 1 mM TCEP, 10% glycerol and 250 mM imidazole) three times. Elution fractions were combined and concentrated using an Amicon Ultra centrifugation filter with a 10,000 molecular weight cut off. Imidazole was removed by repeated concentration and resuspension in storage buffer in the filter device (50 mM glycyl glycine pH 7.4, 500 mM NaCl, 1 mM TCEP and 20% glycerol). CPS1 was concentrated to a final concentration of ˜3 mg/mL before being aliquoted, flash frozen in liquid nitrogen and stored at −80° C.
CPS1 activity was measured and compounds profiled in an endpoint assay measuring the ATPase activity of CPS1 using the ADP-Glo kit from Promega. 50 nM CPS1 was incubated alone or with varying amounts of tested compound from DMSO stocks in assay buffer (50 mM HEPES pH 7.0, 12.5 mM KHCO3, 1.5 mM (NH4)2SO3, 5 mM MgCl2, 50 mM KCl, 1 mM TCEP, 0.01% TritonX 100, 0.0025% BSA and 0.2 mM NAG) for 20 min in a 3 μL volume in a 384-well plate (Corning Cat#3820). The final concentration of DMSO was 0.04%. The reaction was initiated by the addition of 10 μM ATP, bringing the final volume to 6 μL. After 60 min at room temperature, the reaction was terminated with 3 μL ADP-Glo reagent and incubated at room temperature for 30 min. 3 μL of kinase detection reagent was then added and luminescent signal measured on an Envision plate reader after 30 min.

Row | IC50 [µM] | SMILES
1 | 3.58 | COc1ccc(C(=O)N2C[C@@H](C)N(C(=O)c3ccc(-c4cnco4)cc3)[C@H](C)C2)c(F)c1 [Compound 39, ((3R,5R)-3,5-Dimethyl-4-(4-(oxazol-5-yl)benzoyl)piperazin-1-yl)(2-fluoro-4-methoxyphenyl)methanone]
2 | 25.8 | COc1ccc(C(=O)N2[C@H](C)CN(C(=O)c3c(C)cc(OC)cc3F)C[C@H]2C)c(F)c1 [Compound 81, ((2R,6R)-4-(2-fluoro-4-methoxy-6-methylbenzoyl)-2,6-dimethylpiperazin-1-yl)(2-fluoro-4-methoxyphenyl)methanone]
3 | > 66.7 | COc1ccc(C(=O)N2[C@H](C)CN(C(=O)c3cc(OC)c(OC)cc3F)C[C@H]2C)c(F)c1 [Compound 101, ((2R,6R)-4-(2-fluoro-4,5-dimethoxybenzoyl)-2,6-dimethylpiperazin-1-yl)(2-fluoro-4-methoxyphenyl)methanone]
4 | > 66.7 | COc1ccc(C(=O)N2[C@H](C)CN(C(=O)c3cc(OC)ccc3F)C[C@H]2C)c(F)c1 [Compound 96, ((3R,5R)-4-(2-fluoro-4-methoxybenzoyl)-3,5-dimethylpiperazin-1-yl)(2-fluoro-5-methoxyphenyl)methanone]
5 | 32.1 | COc1ccc(OC)c2[nH]c(C(=O)N3[C@H](C)CN(C(=O)Cc4cc5ccccc5[nH]4)C[C@H]3C)cc12 [Compound 84, 1-((3R,5R)-4-(4,7-dimethoxy-1H-indole-2-carbonyl)-3,5-dimethylpiperazin-1-yl)-2-(1H-indol-2-yl)ethanone]
6 | 2.81 | COc1ccc(C(=O)N2[C@H](C)CN(C(=O)c3ccc(OC)cc3Cl)C[C@H]2C)c(F)c1 [Compound 11, ((2R,6R)-4-(2-Chloro-4-methoxybenzoyl)-2,6-dimethylpiperazin-1-yl)(2-fluoro-4-methoxyphenyl)methanone]
7 | 7.53 | COc1ccc(C(=O)N2C[C@@H](C)N(C(=O)c3ccc(-c4ncc[nH]4)cc3)[C@H](C)C2)c(F)c1 [Compound 40, ((3R,5R)-4-(4-(1H-imidazol-2-yl)benzoyl)-3,5-dimethylpiperazin-1-yl)(2-fluoro-4-methoxyphenyl)methanone]
8 | 5.21 | COc1ccc(C(=O)N2CCN(C(=O)c3ccc(OC)cc3F)C(C)C2)c(F)c1 (stereo not drawn) [Compound 45, (2-Methylpiperazine-1,4-diyl)bis((2-fluoro-4-methoxyphenyl)methanone)]
9 | 3.19 | COc1ccc(C(=O)N2C[C@@H](C)N(C(=O)c3ccc(OC)cc3)[C@H](C)C2)cc1 [Compound 105, ((2R,6R)-2,6-dimethylpiperazine-1,4-diyl)bis((4-methoxyphenyl)methanone)]
10 | > 66.7 | COc1ccc(C(=O)N2[C@@H](C)CN(C(=O)c3cc(OC)ccc3F)C[C@@H]2C)c(F)c1 [Compound 97, ((3S,5S)-4-(2-fluoro-4-methoxybenzoyl)-3,5-dimethylpiperazin-1-yl)(2-fluoro-5-methoxyphenyl)methanone]
11 | 0.995 | COc1ccc(C(=O)N2C[C@@H](C)N(C(=O)c3ccc(OCc4ccccc4)cc3F)[C@H](C)C2)c(F)c1 [Compound 24, ((3R,5R)-4-(4-(Benzyloxy)-2-fluorobenzoyl)-3,5-dimethylpiperazin-1-yl)(2-fluoro-4-methoxyphenyl)methanone]
12 | 0.127 | COc1ccc(C(=O)N2[C@H](C)CN(C(=O)c3ccc4cc[nH]c4c3)C[C@H]2C)c(F)c1 [Compound 3, ((2R,6R)-4-(1H-Indole-6-carbonyl)-2,6-dimethylpiperazin-1-yl)(2-fluoro-4-methoxyphenyl)methanone]
13 | > 66.7 | COc1ccc(C(=O)N2C[C@@H](C)N(C(=O)c3ccc(OC)cc3Cl)[C@H](C)C2)c(F)c1 [Compound 94, ((3R,5R)-4-(2-chloro-4-methoxybenzoyl)-3,5-dimethylpiperazin-1-yl)(2-fluoro-4-methoxyphenyl)methanone]
14 | 6.98 | COc1ccc(C(=O)N2C[C@@H](C)N(C(=O)c3ccc(OC)cc3F)[C@@H](C)C2)c(F)c1 [Compound 50, ((2R,6S)-2,6-Dimethylpiperazine-1,4-diyl)bis((2-fluoro-4-methoxyphenyl)methanone)]
15 | 6.44 | COc1ccc(C(=O)N2[C@H](C)CN(C(=O)c3cnc(N)s3)C[C@H]2C)c(F)c1 [Compound 107, (2-aminothiazol-5-yl)((3R,5R)-4-(2-fluoro-4-methoxybenzoyl)-3,5-dimethylpiperazin-1-yl)methanone]
16 | 0.387 | COc1ccc(C(=O)N2C[C@@H](C)N(C(=O)c3ccc(OC)c(F)c3F)[C@H](C)C2)c(F)c1 [Compound 34, ((3R,5R)-4-(2,3-Difluoro-4-methoxybenzoyl)-3,5-dimethylpiperazin-1-yl)(2-fluoro-4-methoxyphenyl)methanone]
17 | 4.05 | COc1ccc(C(=O)N2[C@H](C)CN(C(=O)c3c[nH]c4c(F)cccc34)C[C@H]2C)c(F)c1 [Compound 58, (7-fluoro-1H-indol-3-yl)((3R,5R)-4-(2-fluoro-4-methoxybenzoyl)-3,5-dimethylpiperazin-1-yl)methanone]
18 | 6.04 | COc1ccc(C(=O)N2CCN(C(=O)c3ccc(OC)cc3F)[C@H](C)C2)c(F)c1 [Compound 46, (R)-(2-methylpiperazine-1,4-diyl)bis((2-fluoro-4-methoxyphenyl)methanone)]
19 | 11.5 | COc1ccc(C(=O)N2[C@H](C)CN(C(=O)c3ccc(OC)c(O)c3)C[C@H]2C)c(F)c1 [Compound 72, ((3R,5R)-4-(2-fluoro-4-methoxybenzoyl)-3,5-dimethylpiperazin-1-yl)(3-hydroxy-4-methoxyphenyl)methanone]
20 | 42.7 | COc1ccc(C(=O)N2[C@H](C)CN(C(=O)Cc3c[nH]c4cccnc34)C[C@H]2C)c(F)c1 [Compound 89, 1-((3R,5R)-4-(2-fluoro-4-methoxybenzoyl)-3,5-dimethylpiperazin-1-yl)-2-(1H-pyrrolo[3,2-b]pyridin-3-yl)ethanone]
21 | 2.12 | COc1ccc(OC)c2[nH]c(C(=O)N3CCN(C(=O)c4ccc5cc[nH]c5c4)CC3)cc12 [Compound 54, (4-(1H-indole-6-carbonyl)piperazin-1-yl)(4,7-dimethoxy-1H-indol-2-yl)methanone]
